Data from ChEMBL document CHEMBL1201862, “PubChem BioAssay data set” (2004).
Calls of active or inactive are those of the source.

Legend:
[1] = molecular target: T1, High affinity choline transporter 1 (Homo sapiens, UniProt Q9GZV3); test: human choline transporter blockers, potency – cell-based, 5-point CRC, membrane potential dye, dose response (AID 504840); format: functional
T1 sequence (Q9GZV3 whole entry): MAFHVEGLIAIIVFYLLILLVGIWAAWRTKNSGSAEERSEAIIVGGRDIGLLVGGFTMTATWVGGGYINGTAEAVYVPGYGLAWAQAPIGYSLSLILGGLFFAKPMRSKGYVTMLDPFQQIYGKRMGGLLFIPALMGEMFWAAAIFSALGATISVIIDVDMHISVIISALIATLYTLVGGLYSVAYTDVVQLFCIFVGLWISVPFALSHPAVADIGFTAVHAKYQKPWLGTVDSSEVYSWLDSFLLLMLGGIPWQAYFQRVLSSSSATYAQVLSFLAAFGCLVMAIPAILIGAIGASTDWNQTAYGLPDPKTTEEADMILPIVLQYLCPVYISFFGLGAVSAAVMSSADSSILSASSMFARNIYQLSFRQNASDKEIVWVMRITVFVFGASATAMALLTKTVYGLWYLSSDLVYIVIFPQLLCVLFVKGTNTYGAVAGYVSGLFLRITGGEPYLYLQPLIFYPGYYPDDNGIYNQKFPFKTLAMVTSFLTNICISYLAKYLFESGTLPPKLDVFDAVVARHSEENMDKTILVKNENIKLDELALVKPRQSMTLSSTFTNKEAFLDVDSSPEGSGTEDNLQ

[2] = molecular target: T2, Polyadenylate-binding protein 1 (Homo sapiens, UniProt P11940); test: MLLE domain peptide-binding blockers, IC50 – biochemical, fluorescence polarization, FITC-PAM2 peptide, dose response (AID 602259); format: functional; settings: read-out: IC50_Mean
[3] = molecular target: T2, Polyadenylate-binding protein 1; test: MLLE binding blockers, Cy5 peptide tracer – biochemical, fluorescence polarization, Cy5-PAM2 peptide, secondary, miRNA deadenylation inhibitor project, dose response (AID 602260); format: functional; settings: read-out: IC50_Mean
[4] = viability of uninfected HEp-2 cells – cell-based, HTS, cytotoxicity control for RSV inhibitor project, dose response (AID 2410); format: functional; settings: human respiratory syncytial virus
H9c2 = test: cells; format: functional, cell-based; settings: Rattus norvegicus, H9c2, Myocardium;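 note: confirmatory concentration-response retest of ultra-high-throughput screening hits for modulation of myocardial damage; cell death induced by hydrogen peroxide oxidative stress; compound pretreatment for 60 min then peroxide exposure for 2 h; potency is for protecting the cells against peroxide damage rather than for killing them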
[5] = microbe, parasite or virus in culture; format: functional; settings: Mycobacterium tuberculosis
[6] = tested on: Streptococcus sp. 'group A'; test: Streptococcus pyogenes SK(-)GAS viability under kanamycin – luminescence, BacTiterGlo, confirmation, counter-screen for streptokinase expression inhibitor project, dose response (AID 1900); format: functional, organism-based
Streptococcus = test: GAS UMAA2166 growth inhibition – luminescence, BacTiterGlo, counter-screen for streptokinase expression inhibitor project, dose response (AID 1915); format: functional, organism-based;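 note: potency for reduction of bacterial viability or growth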
[7] = blockade of melanocortin 4 receptor signaling – cell-based, plate reader, cherry pick, counter-screen for LGR2 antagonist project, dose response (AID 743444); format: functional;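 note: transfected HEK 293 cells stimulated with alpha-MSH peptide; potency of inhibitors of the alpha-MSH evoked signal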
[8] = blockers of bursicon-stimulated LGR2 cAMP reporter – cell-based, HEK293, CRE-luciferase reporter, cherry pick, set 2, dose response (AID 743343); format: functional;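 note: transfected cells were stimulated with diluted bursicon conditioned medium after compound addition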
[9] = molecular target: FAD-linked sulfhydryl oxidase ALR (Homo sapiens, UniProt P55789); test: ALR-catalysed DTT oxidation blockers – biochemical, H2O2 detection, luminescence, cherry-pick, dose response (AID 493248)
Genome polyprotein = Genome polyprotein (dengue virus type 2, UniProt P29990); test: flavivirus cap methylation enzyme inhibition – biochemical, confirmation dose response, primary screen (AID 588689); format: functional
[10] = viability of PTEN-deleted HCT116 cells – cell-based, HCT116 PTEN knockout, dose response (AID 1047); format: functional;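 note: HCT116 colon tumor cells with PTEN knocked out; cells exposed to compound for 60 hours before readout; potency for loss of cell viability measured by luminescence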
[11] = viability of HCT116 lacking mutant beta-catenin – cell-based, human colon tumor, dose response (AID 1045); format: functional;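 note: HCT116 colon tumor cells with beta catenin knocked out; cells exposed to compound for 60 hours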
[12] = molecular target: Glucose-6-phosphate 1-dehydrogenase (Homo sapiens, UniProt P11413); test: inhibition of Homo sapiens G6PD, dose series – biochemical, fluorescence, selectivity assay for P. falciparum G6PD inhibitor project, dose response (AID 504792); format: functional
Vero = test: cells; format: functional; settings: Chlorocebus sabaeus
[13] = molecular target: T3, Rac GTPase-activating protein 1 (Homo sapiens, UniProt Q9H0H5); test: blockers of MgcRacGAP-driven Rac1 GTP hydrolysis – biochemical, ADP Hunter fluorescence, primary and confirmatory, confirmation (AID 624330); format: functional
T3 sequence (Q9H0H5 whole entry): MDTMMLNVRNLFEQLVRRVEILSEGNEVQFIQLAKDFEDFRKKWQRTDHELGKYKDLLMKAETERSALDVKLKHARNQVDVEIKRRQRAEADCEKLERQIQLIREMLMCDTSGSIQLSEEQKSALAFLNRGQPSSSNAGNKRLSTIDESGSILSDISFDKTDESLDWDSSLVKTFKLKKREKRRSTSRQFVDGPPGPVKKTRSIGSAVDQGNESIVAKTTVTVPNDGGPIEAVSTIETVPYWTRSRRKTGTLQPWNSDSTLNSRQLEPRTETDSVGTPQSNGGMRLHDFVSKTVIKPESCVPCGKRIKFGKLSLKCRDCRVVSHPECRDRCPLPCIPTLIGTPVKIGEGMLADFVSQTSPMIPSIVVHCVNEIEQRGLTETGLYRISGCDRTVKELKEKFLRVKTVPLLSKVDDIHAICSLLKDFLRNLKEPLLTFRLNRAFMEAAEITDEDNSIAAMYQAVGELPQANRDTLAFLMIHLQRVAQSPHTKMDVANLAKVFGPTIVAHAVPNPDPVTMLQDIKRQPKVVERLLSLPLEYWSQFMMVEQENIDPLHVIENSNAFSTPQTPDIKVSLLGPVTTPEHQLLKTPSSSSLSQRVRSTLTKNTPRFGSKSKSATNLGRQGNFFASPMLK

Caspase-6 = molecular target: T4, Caspase-6 (Homo sapiens, UniProt P55212); test: inhibition of CASP6 peptide cleavage – biochemical, VEID-R110 fluorescence, cherry-pick, dose response (AID 720632)
T4 sequence (P55212 whole entry): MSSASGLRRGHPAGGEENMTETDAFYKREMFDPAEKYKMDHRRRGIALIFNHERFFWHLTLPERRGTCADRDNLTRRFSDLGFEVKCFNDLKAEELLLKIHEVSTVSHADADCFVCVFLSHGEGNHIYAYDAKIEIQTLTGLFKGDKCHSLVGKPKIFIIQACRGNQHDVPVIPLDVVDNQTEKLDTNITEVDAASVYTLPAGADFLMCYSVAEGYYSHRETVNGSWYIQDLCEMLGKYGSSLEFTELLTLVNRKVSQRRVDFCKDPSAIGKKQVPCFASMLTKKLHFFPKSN

Chain of FAD-linked sulfhydryl oxidase ALR (P55789 whole entry): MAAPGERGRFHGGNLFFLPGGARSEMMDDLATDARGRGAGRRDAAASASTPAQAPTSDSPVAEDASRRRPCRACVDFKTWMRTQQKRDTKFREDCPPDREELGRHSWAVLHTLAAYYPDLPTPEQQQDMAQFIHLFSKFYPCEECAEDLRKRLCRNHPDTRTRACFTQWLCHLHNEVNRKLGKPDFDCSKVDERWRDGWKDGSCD
T2 sequence (P11940 whole entry, the tested form may be a part): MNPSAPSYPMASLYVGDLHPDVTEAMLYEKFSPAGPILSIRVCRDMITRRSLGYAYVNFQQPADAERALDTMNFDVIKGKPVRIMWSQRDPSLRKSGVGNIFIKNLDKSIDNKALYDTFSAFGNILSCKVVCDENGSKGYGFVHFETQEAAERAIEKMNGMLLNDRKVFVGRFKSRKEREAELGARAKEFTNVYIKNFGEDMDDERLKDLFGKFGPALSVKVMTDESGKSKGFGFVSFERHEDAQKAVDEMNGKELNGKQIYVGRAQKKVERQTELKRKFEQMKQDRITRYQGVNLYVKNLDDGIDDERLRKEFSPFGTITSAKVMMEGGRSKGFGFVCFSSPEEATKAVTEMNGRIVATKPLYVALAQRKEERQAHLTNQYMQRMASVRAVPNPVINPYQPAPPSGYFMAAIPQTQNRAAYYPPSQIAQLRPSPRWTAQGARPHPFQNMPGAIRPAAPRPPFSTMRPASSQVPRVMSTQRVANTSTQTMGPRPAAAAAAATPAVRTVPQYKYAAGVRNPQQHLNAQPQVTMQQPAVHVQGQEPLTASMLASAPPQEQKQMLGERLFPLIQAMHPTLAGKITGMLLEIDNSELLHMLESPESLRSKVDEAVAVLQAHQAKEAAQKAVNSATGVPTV
Chain of Genome polyprotein (P29990 2492-3391 limits assumed): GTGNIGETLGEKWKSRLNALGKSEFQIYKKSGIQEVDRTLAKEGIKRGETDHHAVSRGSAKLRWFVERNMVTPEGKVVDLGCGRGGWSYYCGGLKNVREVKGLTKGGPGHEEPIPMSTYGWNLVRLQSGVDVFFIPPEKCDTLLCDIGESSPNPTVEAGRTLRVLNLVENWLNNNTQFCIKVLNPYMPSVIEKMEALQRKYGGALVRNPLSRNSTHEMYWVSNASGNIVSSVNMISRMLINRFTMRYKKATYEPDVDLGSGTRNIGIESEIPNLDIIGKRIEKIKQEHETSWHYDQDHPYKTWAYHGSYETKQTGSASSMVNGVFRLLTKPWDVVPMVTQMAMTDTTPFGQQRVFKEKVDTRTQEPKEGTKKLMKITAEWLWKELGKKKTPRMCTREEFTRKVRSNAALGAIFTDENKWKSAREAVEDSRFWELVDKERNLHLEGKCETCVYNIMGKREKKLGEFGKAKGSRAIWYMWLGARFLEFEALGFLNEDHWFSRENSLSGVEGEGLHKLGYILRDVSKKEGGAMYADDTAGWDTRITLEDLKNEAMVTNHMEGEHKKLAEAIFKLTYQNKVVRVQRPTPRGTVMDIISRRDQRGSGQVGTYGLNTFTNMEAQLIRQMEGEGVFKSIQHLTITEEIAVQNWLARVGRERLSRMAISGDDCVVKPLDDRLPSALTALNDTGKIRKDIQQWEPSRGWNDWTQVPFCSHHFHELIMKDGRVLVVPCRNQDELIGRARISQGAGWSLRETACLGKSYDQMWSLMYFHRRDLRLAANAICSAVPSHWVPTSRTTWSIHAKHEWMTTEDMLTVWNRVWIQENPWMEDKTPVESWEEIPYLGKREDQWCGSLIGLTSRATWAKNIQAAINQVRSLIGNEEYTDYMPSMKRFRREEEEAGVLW
Chain of Glucose-6-phosphate 1-dehydrogenase (P11413 whole entry): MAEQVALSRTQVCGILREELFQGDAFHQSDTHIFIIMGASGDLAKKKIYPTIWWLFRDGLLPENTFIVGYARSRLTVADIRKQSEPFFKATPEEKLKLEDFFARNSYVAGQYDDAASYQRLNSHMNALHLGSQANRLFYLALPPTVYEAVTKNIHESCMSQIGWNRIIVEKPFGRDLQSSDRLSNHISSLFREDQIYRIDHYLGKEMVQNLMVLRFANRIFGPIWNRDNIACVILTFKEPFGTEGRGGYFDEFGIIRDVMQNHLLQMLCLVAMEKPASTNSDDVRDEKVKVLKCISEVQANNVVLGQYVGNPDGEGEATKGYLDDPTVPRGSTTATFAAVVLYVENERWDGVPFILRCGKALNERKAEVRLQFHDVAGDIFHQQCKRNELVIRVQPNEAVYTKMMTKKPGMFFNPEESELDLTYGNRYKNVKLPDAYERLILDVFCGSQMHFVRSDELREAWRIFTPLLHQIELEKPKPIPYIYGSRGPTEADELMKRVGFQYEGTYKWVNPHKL

Cc1ccccc1/C=C/C(=O)NCC(=O)N1CCC(N(C)C2CCCCC2C)CC1 (centres undefined)
IC50 [1]: 14.5 µM (active)

O=C(O)c1cccc(S(=O)(=O)Nc2ccc3c(c2)OCO3)c1
IC50 [2]: > 66 µM (inactive)
IC50 [3]: > 66 µM (inactive)

Cc1cc(C)c2ccc(NN)nc2c1O
CC50 [4]: 36 µM (active)
IC50 (H9c2): 5.06 µM (active)
CC50 [5]: > 40 µM (active)
EC50 [6]: 3.27 µM (active)
EC50 (Streptococcus): 6.5 µM (active)

CNC(=O)Oc1cccc(-c2cn3cc(Cl)ccc3n2)c1
AC50 [7]: 18.6 µM (active)
AC50 [8]: 15.8 µM (active)

Cc1cc(Nc2[nH]nc(N)c2C#N)ccc1F
AC50 [9]: 2.22 µM (active)

CC1CCCCC1NC(=O)c1ccc(S(=O)(=O)NCC2CCCO2)cc1 (centres undefined)
IC50 [1]: 12.3 µM (active)

COC(=O)c1c(C)c2c(C)cc3ccccn3c-2c1C(=O)OC
IC50 (Genome polyprotein): > 100 µM (active)

CSc1ccc(C2C(C#N)=C(N)Oc3cc4c(cc32)OCO4)cc1 (centres undefined)
EC50 [10]: 6.59 µM (active)
EC50 [11]: 6.05 µM (active)

[O-]/[N+](=C/c1cccnc1)c1ccc(Br)cc1
IC50 [12]: 28.2 µM (inactive)

Fc1cc(F)c(F)c(SCCc2ccncc2)c1F
EC50 [10]: 29.7 µM (active)
EC50 [11]: 30.7 µM (active)

Nc1ccc(-c2ccc(N)c(C(=O)O)c2)cc1C(=O)O
AC50 [9]: 2.38 µM (active)

CC(=O)Nc1ccc(C(=O)CSc2ncn(-c3ccccc3)n2)cc1
IC50 [2]: > 66 µM (inactive)
IC50 [3]: > 66 µM (inactive)

Cc1ccc(S(=O)(=O)SC/C=C/CSS(=O)(=O)c2ccc(C)cc2)cc1
IC50 [12]: 59.5 µM (inactive)

CN(C)CCCN(C(=O)C1=COCCO1)c1nc2ccc(Br)cc2s1
CC50 (Vero): > 25 µM (active)

Sc1ncc2cnccn12
IC50 [13]: 52.3 µM (active)
IC50 [2]: > 66 µM (inactive)
IC50 [3]: > 66 µM (inactive)

COc1cc(/C=N/Nc2ccc(Cl)nn2)cc(OC)c1O
AC50 [9]: 0.005 µM (active)

CCCCNc1nc(NCc2ccccc2)nc2ccccc12
AC50 (Caspase-6): 15.6 µM (active)

COc1c(OC(C)=O)ccc(/C=N\NC(=O)c2ccc(Br)cc2)c1[N+](=O)[O-]
IC50 (Genome polyprotein): 96.5 µM (active)
